Test results published in patent US9993494B2, “Compositions and methods for treating fibrotic disease” (eFFECTOR Therapeutics, Inc., priority 2014, dated 2018).

Test system: normal human lung fibroblasts
Test: Ribosomal profiling: translational efficiency in TGFβ-treated fibroblasts
Format: cell-based
Conditions: TGFβ-treated fibroblasts
Protocol: Ribosomal profiling allows for measurement of changes in transcription and translation on a genome-wide basis accompanying TGFβ-dependent transformation of fibroblasts to myofibroblasts. Ribosomal profiles of the TGFβ-treated fibroblasts from Example 1 (about 6×10^6 cells/10 cm plate) were prepared and analyzed for changes in translational efficiencies with respect to potential disease-associated cellular changes accompanying this TGFβ-induced transformation.
Briefly, cells were washed with cold PBS supplemented with cycloheximide and lysed with 1× mammalian cell lysis buffer for 10 minutes on ice. Lysates were clarified by centrifugation for 10 minutes at 14,000 rpm and supernatants were collected. Cell lysates were processed to generate ribosomal protected fragments and total mRNA according to the instructions included with the ARTseq Ribosome Profiling Kit (Illumina, San Diego, Calif.). Sequencing of total RNA (RNA) and of ribosome-protected fragments of RNA (RPF) was carried out using RNA-Seq methodology according to the manufacturer's instructions (Illumina). To analyze the ribosomal profiles, RNA-Seq reads were processed with tools from the FASTX-Toolkit (fastq_quality_trimmer, fastx_clipper and fastx_trimmer). Unprocessed and processed reads were evaluated for a variety of quality measures using FastQC, and processed reads were mapped to the human genome using TopHat (see, e.g., Trapnell et al., Bioinformatics 25:1105, 2009). Gene-by-gene assessment of the number of fragments strictly and uniquely mapping to the coding region of each gene was conducted using HTSeq-count, a component of the HTSeq package. […] Genes with low counts in either RPF or RNA were excluded from differential analyses. Pathway and network analyses of differential data were conducted using Ingenuity Pathway Analysis (IPA).

Question: With `CC(C)n1nc(-c2cc3cc(O)ccc3[nH]2)c2c(N)ncnc21` [PP242] as the compound, how does the “renormalizing the translational profile of COX7C” value (ENSG00000127184) read?
Answer: Its value is “− (− = <0.9)”.

Question: What about the “renormalizing the translational profile of LIF” value (ENSG00000128342) of the same compound?
Answer: The value was “− (− = <0.9)”.

Question: What about the “renormalizing the translational profile of MTUS1” value (ENSG00000129422) of the same compound?
Answer: The value was “+ (+ = 0.9 to 1.5)”.

Question: What about the “renormalizing the translational profile of ARHGEF6” value (ENSG00000129675) of the same compound?
Answer: Its value is “− (− = <0.9)”.

Question: And the “renormalizing the translational profile of RPL36” value (ENSG00000130255)?
Answer: Its value is “− (− = <0.9)”.

Question: And the “renormalizing the translational profile of GDF15” value (ENSG00000130513)?
Answer: Its value is “− (− = <0.9)”.

Question: And the “renormalizing the translational profile of ASS1” value (ENSG00000130707)?
Answer: The value was “− (− = <0.9)”.

Question: What about the “renormalizing the translational profile of EIF2S3” value (ENSG00000130741) of the same compound?
Answer: Its value is “− (− = <0.9)”.

Question: And the “renormalizing the translational profile of RPL27” value (ENSG00000131469)?
Answer: Its value is “− (− = <0.9)”.

Question: What about the “renormalizing the translational profile of MATN3” value (ENSG00000132031) of the same compound?
Answer: The value was “− (− = <0.9)”.

Question: And the “renormalizing the translational profile of PPARG” value (ENSG00000132170)?
Answer: The value was “− (− = <0.9)”.

Question: And the “renormalizing the translational profile of RARRES3” value (ENSG00000133321)?
Answer: Its value is “− (− = <0.9)”.

Question: And the “renormalizing the translational profile of BIVM” value (ENSG00000134897)?
Answer: Its value is “+ (+ = 0.9 to 1.5)”.

Question: What about the “renormalizing the translational profile of ATP5G2” value (ENSG00000135390) of the same compound?
Answer: The value was “+ (+ = 0.9 to 1.5)”.

Question: What about the “renormalizing the translational profile of KRT7” value (ENSG00000135480) of the same compound?
Answer: Its value is “− (− = <0.9)”.

Question: And the “renormalizing the translational profile of HNRNPA1” value (ENSG00000135486)?
Answer: The value was “+ (+ = 0.9 to 1.5)”.

Question: And the “renormalizing the translational profile of IL6” value (ENSG00000136244)?
Answer: The value was “− (− = <0.9)”.

Question: And the “renormalizing the translational profile of RPL35” value (ENSG00000136942)?
Answer: Its value is “− (− = <0.9)”.

Question: And the “renormalizing the translational profile of NOV” value (ENSG00000136999)?
Answer: Its value is “− (− = <0.9)”.

Question: What about the “renormalizing the translational profile of IER3” value (ENSG00000137331) of the same compound?
Answer: Its value is “− (− = <0.9)”.

Question: What about the “renormalizing the translational profile of DDX60” value (ENSG00000137628) of the same compound?
Answer: The value was “− (− = <0.9)”.

Question: What about the “renormalizing the translational profile of RPLP1” value (ENSG00000137818) of the same compound?
Answer: Its value is “− (− = <0.9)”.

Question: What about the “renormalizing the translational profile of PAQR5” value (ENSG00000137819) of the same compound?
Answer: The value was “− (− = <0.9)”.

Question: And the “renormalizing the translational profile of AOX1” value (ENSG00000138356)?
Answer: The value was “− (− = <0.9)”.

Question: What about the “renormalizing the translational profile of FGF5” value (ENSG00000138675) of the same compound?
Answer: Its value is “++ (++ = 1.5 to 2.0)”.

Question: What about the “renormalizing the translational profile of PDE5A” value (ENSG00000138735) of the same compound?
Answer: The value was “− (− = <0.9)”.

Question: And the “renormalizing the translational profile of GAS2L3” value (ENSG00000139354)?
Answer: The value was “− (− = <0.9)”.

Question: And the “renormalizing the translational profile of DIAPH3” value (ENSG00000139734)?
Answer: The value was “− (− = <0.9)”.

Question: And the “renormalizing the translational profile of MYO19” value (ENSG00000141140)?
Answer: Its value is “− (− = <0.9)”.

Question: And the “renormalizing the translational profile of RPL13A” value (ENSG00000142541)?
Answer: Its value is “− (− = <0.9)”.

Question: And the “renormalizing the translational profile of RPL11” value (ENSG00000142676)?
Answer: The value was “− (− = <0.9)”.

Question: And the “renormalizing the translational profile of ACTA1” value (ENSG00000143632)?
Answer: The value was “− (− = <0.9)”.

Question: And the “renormalizing the translational profile of PLEKHA6” value (ENSG00000143850)?
Answer: The value was “− (− = <0.9)”.

Question: What about the “renormalizing the translational profile of RPL32” value (ENSG00000144713) of the same compound?
Answer: The value was “− (− = <0.9)”.

Question: And the “renormalizing the translational profile of RPL37” value (ENSG00000145592)?
Answer: The value was “− (− = <0.9)”.

Question: What about the “renormalizing the translational profile of BTF3” value (ENSG00000145741) of the same compound?
Answer: Its value is “− (− = <0.9)”.

Question: And the “renormalizing the translational profile of HIGD2A” value (ENSG00000146066)?
Answer: Its value is “+ (+ = 0.9 to 1.5)”.

Question: What about the “renormalizing the translational profile of CREB5” value (ENSG00000146592) of the same compound?
Answer: Its value is “− (− = <0.9)”.

Question: And the “renormalizing the translational profile of DENND2A” value (ENSG00000146966)?
Answer: Its value is “− (− = <0.9)”.

Question: What about the “renormalizing the translational profile of RPL10” value (ENSG00000147403) of the same compound?
Answer: The value was “− (− = <0.9)”.

Question: And the “renormalizing the translational profile of EIF3H” value (ENSG00000147677)?
Answer: The value was “− (− = <0.9)”.

Question: What about the “renormalizing the translational profile of RPL7A” value (ENSG00000148303) of the same compound?
Answer: Its value is “− (− = <0.9)”.

Question: What about the “renormalizing the translational profile of EIF3M” value (ENSG00000149100) of the same compound?
Answer: Its value is “− (− = <0.9)”.

Question: And the “renormalizing the translational profile of JPH2” value (ENSG00000149596)?
Answer: Its value is “− (− = <0.9)”.

Question: And the “renormalizing the translational profile of FAU” value (ENSG00000149806)?
Answer: Its value is “− (− = <0.9)”.

Question: And the “renormalizing the translational profile of CCDC102B” value (ENSG00000150636)?
Answer: Its value is “− (− = <0.9)”.

Question: What about the “renormalizing the translational profile of FRMD4A” value (ENSG00000151474) of the same compound?
Answer: The value was “− (− = <0.9)”.

Question: And the “renormalizing the translational profile of HOMER1” value (ENSG00000152413)?
Answer: The value was “− (− = <0.9)”.

Question: What about the “renormalizing the translational profile of PLEKHH2” value (ENSG00000152527) of the same compound?
Answer: The value was “− (− = <0.9)”.

Question: What about the “renormalizing the translational profile of ANKH” value (ENSG00000154122) of the same compound?
Answer: Its value is “− (− = <0.9)”.

Question: And the “renormalizing the translational profile of ABCA6” value (ENSG00000154262)?
Answer: Its value is “− (− = <0.9)”.

Question: And the “renormalizing the translational profile of OBSCN” value (ENSG00000154358)?
Answer: Its value is “− (− = <0.9)”.

Question: What about the “renormalizing the translational profile of ADAMTS5” value (ENSG00000154736) of the same compound?
Answer: The value was “− (− = <0.9)”.

Question: What about the “renormalizing the translational profile of OXA1L” value (ENSG00000155463) of the same compound?
Answer: Its value is “− (− = <0.9)”.

Question: And the “renormalizing the translational profile of C9orf85” value (ENSG00000155621)?
Answer: Its value is “+ (+ = 0.9 to 1.5)”.

Question: What about the “renormalizing the translational profile of RPL30” value (ENSG00000156482) of the same compound?
Answer: The value was “− (− = <0.9)”.

Question: What about the “renormalizing the translational profile of EEF1A1” value (ENSG00000156508) of the same compound?
Answer: Its value is “+ (+ = 0.9 to 1.5)”.

Question: What about the “renormalizing the translational profile of NRG1” value (ENSG00000157168) of the same compound?
Answer: The value was “− (− = <0.9)”.

Question: What about the “renormalizing the translational profile of ADAMTS4” value (ENSG00000158859) of the same compound?
Answer: The value was “− (− = <0.9)”.

Question: And the “renormalizing the translational profile of RPL8” value (ENSG00000161016)?
Answer: The value was “− (− = <0.9)”.

Question: And the “renormalizing the translational profile of RPL26” value (ENSG00000161970)?
Answer: The value was “− (− = <0.9)”.

Question: And the “renormalizing the translational profile of RPL29” value (ENSG00000162244)?
Answer: The value was “− (− = <0.9)”.

Question: What about the “renormalizing the translational profile of CAMK2N1” value (ENSG00000162545) of the same compound?
Answer: Its value is “− (− = <0.9)”.

Question: And the “renormalizing the translational profile of IGFBP7” value (ENSG00000163453)?
Answer: The value was “− (− = <0.9)”.

Question: What about the “renormalizing the translational profile of RPL22L1” value (ENSG00000163584) of the same compound?
Answer: The value was “− (− = <0.9)”.

Question: What about the “renormalizing the translational profile of RPL9” value (ENSG00000163682) of the same compound?
Answer: Its value is “− (− = <0.9)”.
